Results reported in paper PMC11995724, “Antibiotic target discovery by integrated phenotypic and activity-based profiling of electrophilic fragments” (Cell chemical biology, 2025).
Where a name gives a salt, the structure may show the parent alone.

Experiment: in vitro
Conditions: human, hek293t cells

In order of falling viability at 48 h, 25 µM:
1. O=C(CCl)Nc1cc(S(=O)(=O)N2CCOCC2)ccc1O [6-J12, 2-chloro-N-[2-hydroxy-5-(morpholine-4-sulfonyl)phenyl]acetamide]  116%
2. CC(Cl)C(=O)Nc1ccccc1OC(F)F (stereo not shown) [6-J08, 2-chloro-N-[2-(difluoromethoxy)phenyl]propanamide]  115%
3. CC(Cl)C(=O)Nc1c(Cl)cc(Cl)cc1Cl (stereo not shown) [6-K09, 2-chloro-N-(2,4,6-trichlorophenyl)propanamide]  115%
4. CC(Cl)C(=O)NC1CC=CCC1 (stereo not shown) [6-K21, 2-chloro-N-(cyclohex-3-en-1-yl)propanamide]  114%
5. CC(Cl)C(=O)NC1CCCn2nccc21 (stereo not shown) [6-J16, 2-chloro-N-{4H,5H,6H,7H-pyrazolo[1,5-a]pyridin-4-yl}propanamide]  113%
6. CC(Cl)C(=O)Nc1ccc(F)cc1 (stereo not shown) [6-K15, 2-chloro-N-(4-fluorophenyl)propanamide]  113%
7. Cc1ccccc1CN1CCC(NC(=O)CCl)CC1 [6-L08, 2-chloro-N-{1-[(2-methylphenyl)methyl]piperidin-4-yl}acetamide hydrochloride]  113%
8. CC(Cl)C(=O)N(C)C(C)c1cccc(NC(=O)c2ccccc2)c1 (stereo not shown) [6-J14, N-{3-[1-(2-chloro-N-methylpropanamido)ethyl]phenyl}benzamide]  111%
9. CC(Cl)C(=O)NC1CCCN(S(=O)(=O)N2CCOCC2)C1 (stereo not shown) [6-L03, 2-chloro-N-[1-(morpholine-4-sulfonyl)piperidin-3-yl]propanamide]  111%
10. CC(Cl)C(=O)NC1CC(=O)N(Cc2ccccc2C(F)(F)F)C1 (stereo not shown) [6-J19, 2-chloro-N-(5-oxo-1-{[2-(trifluoromethyl)phenyl]methyl}pyrrolidin-3-yl)propanamide]  108%
11. COCC1(NC(=O)C(C)Cl)CC=CCC1 (stereo not shown) [6-J13, 2-chloro-N-[1-(methoxymethyl)cyclohex-3-en-1-yl]propanamide]  107%
12. CC(Cl)C(=O)N1CCNC(=O)C1c1cccs1 (stereo not shown) [6-J17, 4-(2-chloropropanoyl)-3-(thiophen-2-yl)piperazin-2-one]  106%
13. CC(Cl)C(=O)N(C)C1CCN(c2ccccn2)CC1 (stereo not shown) [6-J20, 2-chloro-N-methyl-N-[1-(pyridin-2-yl)piperidin-4-yl]propanamide]  106%
14. CC(Cl)C(=O)N1CCCC(CNC(=O)Nc2ccc(F)cc2)C1 (stereo not shown) [6-J22, 3-{[1-(2-chloropropanoyl)piperidin-3-yl]methyl}-1-(4-fluorophenyl)urea]  105%
15. CC(=O)c1cccc(NC(=O)C(C)Cl)c1 (stereo not shown) [6-K22, N-(3-acetylphenyl)-2-chloropropanamide]  105%
16. CC(=O)N(Cc1ncc(C(C)C)o1)C1CCN(C(=O)C(C)Cl)C1 (stereo not shown) [6-J07, N-[1-(2-chloropropanoyl)pyrrolidin-3-yl]-N-{[5-(propan-2-yl)-1,3-oxazol-2-yl]methyl}acetamide]  103%
17. CC(Cl)C(=O)Nc1nc(-c2ccccc2)cs1 (stereo not shown) [6-L10, 2-chloro-N-(4-phenyl-1,3-thiazol-2-yl)propanamide]  101%
18. CC(Cl)C(=O)Nc1ncnc2[nH]cnc12 (stereo not shown) [6-I18, 2-chloro-N-(9H-purin-6-yl)propanamide]  100%
19. CC(Cl)C(=O)N(C)C1CCS(=O)(=O)CC1 (stereo not shown) [6-J21, 2-chloro-N-(1,1-dioxo-1lambda6-thian-4-yl)-N-methylpropanamide]  99.1%
20. CC(Cl)C(=O)N1CCOC(c2ccnc(N(C)C)n2)C1 (stereo not shown) [6-L05, 2-chloro-1-{2-[2-(dimethylamino)pyrimidin-4-yl]morpholin-4-yl}propan-1-one]  99.1%
21. O=C(CCl)NCCc1nc2ccccc2s1 [6-K20, N-[2-(1,3-benzothiazol-2-yl)ethyl]-2-chloroacetamide]  98%
22. CC(Cl)C(=O)N1CC(Oc2ccc(C#N)cc2)C1 (stereo not shown) [6-J15, 4-{[1-(2-chloropropanoyl)azetidin-3-yl]oxy}benzonitrile]  97.1%
23. Cc1ccc(NC(=O)NC(=O)C(C)Cl)c(C)c1 (stereo not shown) [6-J04, 3-(2-chloropropanoyl)-1-(2,4-dimethylphenyl)urea]  96.6%
24. CC(Cl)C(=O)N(C)Cc1nccn1Cc1ccccc1 (stereo not shown) [6-J09, N-[(1-benzyl-1H-imidazol-2-yl)methyl]-2-chloro-N-methylpropanamide]  91.5%
25. Cc1cc(CO[C@H]2CC[C@H](NC(=O)CCl)CC2)on1 [6-K19, 2-chloro-N-[(1r,4r)-4-[(3-methyl-1,2-oxazol-5-yl)methoxy]cyclohexyl]acetamide]  88.1%
26. CC(Cl)C(=O)N1CCC(c2nc3cc(F)ccc3s2)CC1 (stereo not shown) [6-J18, 2-chloro-1-[4-(5-fluoro-1,3-benzothiazol-2-yl)piperidin-1-yl]propan-1-one]  78.9%
27. Cc1ccsc1-c1nnc(NC(=O)CCl)o1 [6-K03, 2-chloro-N-[5-(3-methylthiophen-2-yl)-1,3,4-oxadiazol-2-yl]acetamide]  72.7%
28. CC(C)c1ccc(CCNC(=O)CCl)cc1 [6-I16, 2-chloro-N-{2-[4-(propan-2-yl)phenyl]ethyl}acetamide]  71%
29. CC1CCCN(Cc2ccc(CNC(=O)CCl)cc2)C1 (stereo not shown) [6-K04, 2-chloro-N-({4-[(3-methylpiperidin-1-yl)methyl]phenyl}methyl)acetamide hydrochloride]  56.4%
30. O=C(CCl)N[C@H]1CCCc2ccccc21 [6-I21, 2-chloro-N-[(1S)-1,2,3,4-tetrahydronaphthalen-1-yl]acetamide]  24%
31. Cc1cc(C)c(CCNC(=O)CCl)c(C)c1 [6-K06, 2-chloro-N-[2-(2,4,6-trimethylphenyl)ethyl]acetamide]  14.3%
32. CCc1ccc(CNC(=O)CCl)s1 [6-K05, 2-chloro-N-[(5-ethylthiophen-2-yl)methyl]acetamide]  5.18%
33. O=C(CCl)NCc1ccccc1C(F)(F)F [6-K10, 2-chloro-N-{[2-(trifluoromethyl)phenyl]methyl}acetamide]  2.67%
34. O=C(CCl)NCc1ccccc1CN1CCCC1=O [6-K14, 2-chloro-N-({2-[(2-oxopyrrolidin-1-yl)methyl]phenyl}methyl)acetamide]  2.03%
35. CC(C)C(NC(=O)CCl)c1ccc(F)c(C#N)c1 (stereo not shown) [6-I19, 2-chloro-N-[1-(3-cyano-4-fluorophenyl)-2-methylpropyl]acetamide]  1.83%
36. O=C(CCl)NCc1cnn(-c2ccccc2)n1 [6-J03, 2-chloro-N-[(2-phenyl-2H-1,2,3-triazol-4-yl)methyl]acetamide]  1.68%
37. CC(C)c1ccc(CN(C(=O)CCl)C2CC2)cc1 [6-K18, 2-chloro-N-cyclopropyl-N-{[4-(propan-2-yl)phenyl]methyl}acetamide]  1.65%
38. O=C(CCl)Nc1oncc1-c1ccccc1 [6-I20, 2-chloro-N-(4-phenyl-1,2-oxazol-5-yl)acetamide]  1.45%
39. O=C(CCl)N(Cc1cnn(-c2ccccc2)c1)C1CC1 [6-L09, 2-chloro-N-cyclopropyl-N-[(1-phenyl-1H-pyrazol-4-yl)methyl]acetamide]  1.4%
40. CC(C#N)CSc1ccccc1NC(=O)CCl (stereo not shown) [6-K16, 2-chloro-N-{2-[(2-cyano-2-methylethyl)sulfanyl]phenyl}acetamide]  1.3%
41. CC(NC(=O)CCl)c1nc(Cc2ccccc2)no1 (stereo not shown) [6-L07, N-[1-(3-benzyl-1,2,4-oxadiazol-5-yl)ethyl]-2-chloroacetamide]  1.28%
42. O=C(CCl)NC(c1ccc(F)cc1)C1CCCC1 (stereo not shown) [6-K08, 2-chloro-N-[cyclopentyl(4-fluorophenyl)methyl]acetamide]  1.04%
43. COc1ccccc1N=Nc1ccc(NC(=O)CCl)cc1C [6-J06, 2-chloro-N-{4-[2-(2-methoxyphenyl)diazen-1-yl]-3-methylphenyl}acetamide]  0.765%
44. CCC(C)c1ccccc1NC(=O)CCl (stereo not shown) [6-K11, N-[2-(butan-2-yl)phenyl]-2-chloroacetamide]  0.743%
45. CCc1ccccc1NC(=O)CN(C)C(=O)CCl [6-L06, 2-chloro-N-{[(2-ethylphenyl)carbamoyl]methyl}-N-methylacetamide]  0.728%
46. Cc1cccc(CN(C(=O)CCl)C(C)C)c1 [6-J05, 2-chloro-N-[(3-methylphenyl)methyl]-N-(propan-2-yl)acetamide]  0.679%
47. CC(C)N(c1ccccc1)c1ccc(NC(=O)CCl)cc1 [6-I17, 2-chloro-N-{4-[phenyl(propan-2-yl)amino]phenyl}acetamide]  0.67%
48. O=C(CCl)N1N=C(c2cccs2)CC1c1cccc(O)c1 (stereo not shown) [6-L04, 2-chloro-1-[5-(3-hydroxyphenyl)-3-(thiophen-2-yl)-4,5-dihydro-1H-pyrazol-1-yl]ethan-1-one]  0.561%
49. O=C(CCl)Nc1ccc(Cl)c(S(=O)(=O)N2CCOCC2)c1 [6-K13, 2-chloro-N-[4-chloro-3-(morpholine-4-sulfonyl)phenyl]acetamide]  0.541%
50. O=C(CCl)Nc1nnc(-c2ccccc2Cl)s1 [6-K17, 2-chloro-N-[5-(2-chlorophenyl)-1,3,4-thiadiazol-2-yl]acetamide]  0.539%
51. CCCc1ccc(NC(=O)CCl)cc1 [6-I22, 2-chloro-N-(4-propylphenyl)acetamide]  0.417%
52. O=C(CCl)Nc1cc(-c2ccc3c(c2)CCC3)nn1-c1ccccc1 [6-J10, 2-chloro-N-[3-(2,3-dihydro-1H-inden-5-yl)-1-phenyl-1H-pyrazol-5-yl]acetamide]  0.354%
53. CCN(C(=O)CCl)C(c1ccccc1)c1ccc(F)cc1 (stereo not shown) [6-J11, 2-chloro-N-ethyl-N-[(4-fluorophenyl)(phenyl)methyl]acetamide]  0.263%
54. COc1cc2c(cc1OC)C(c1ccccc1)N(C(=O)CCl)CC2 (stereo not shown) [6-K12, 2-chloro-1-(6,7-dimethoxy-1-phenyl-1,2,3,4-tetrahydroisoquinolin-2-yl)ethan-1-one]  0.105%
55. O=C(CCl)Nc1ccc(OCc2ccccc2)cc1 [6-K07, N-[4-(benzyloxy)phenyl]-2-chloroacetamide]  0.0552%
